Measurements as given in patent US8242123B2, “Insecticidal methods using 4-amino-5-chloro-thieno[2,3-d]-pyrimidine compounds” (Merial Limited, priority 2006, dated 2012).

Key:
Assay type in all cases: in vivo
[1] = system: Bean Aphid (aphis fabae); test: Bean aphid, nasturtium plant dip test; details: 72 h, after 3 days, nasturtium plants dipped
Protocol: (§1) In the following tests, if not precised otherwise, the formulated solutions of some of the compound examples were diluted to an active ingredient concentration of 300 ppm, and the diluted solutions were applied in the below mentioned tests.
(§2) The active compounds were formulated in 50:50 acetone:water and 100 ppm Kinetic™ surfactant.
Nasturtium plants grown in Metro mix in the 1st leaf-pair stage (variety ‘Mixed Jewle’) were infested with approximately 2-30 laboratory-reared aphids by placing infested cut plants on top of the test plants. The cut plants were removed after 24 hr. Each plant was dipped into the test solution to provide complete coverage of the foliage, stem, protruding seed surface and surrounding cube surface and allowed to dry in the fume hood. The treated plants were kept at about 25° C. with continuous fluorescent light. Aphid mortality was determined after 3 days.

[2] = system: Rice Plant Hopper (Nilaparvata lugens); test: Rice plant hopper, sprayed rice seedlings; details: for mortality at 100 ppm: Nilaparvata lugens, after 72 hours, rice seedlings sprayed, 10 adults; for biological activity (0% no activity to 100% total control), Nilaparvata lugens: 300 ppm, comparative test
Protocol: as §1
(§3) Rice seedlings were cleaned and washed 24 hours before spraying. The active compounds were formulated in 50:50 acetone:water and 0.1% vol/vol surfactant (EL 620) was added. Potted rice seedlings were sprayed with 5 ml test solution, air dried, placed in cages and inoculated with 10 adults. Treated rice plants were kept at 28-29° C. and relative humidity of 50-60%. Percent mortality was recorded after 72 hours.
(§4) The biological activity in tables B.1 and B.2 was evaluated on scale range from 0% as showing no biological activity to 100% as having total control. The comparative biological tests were conducted as described above.

[3] = system: Colorado Potato Beetle (Leptinotarsa decemlineata); test: Colorado potato beetle, potato leaf dip test; details: foliar, 120 h, 5 days after treatment, larvae on dipped potato leaves, read-out: mortality compared to untreated controls (Colorado potato beetle)
Protocol: as §1
Potato plants were utilized for bioassays. Excised plant leaves were dipped into 1:1 acetone/water dilutions of the active compounds. After the leaves had dried, they were individually placed onto water-moistened filter paper on the bottoms of Petri dishes.
Each dish was infested with 5-7 larvae and covered with a lid. Each treatment dilution was replicated 4 times. Test dishes were held at approximately 27° C. and 60% humidity. Numbers of live and morbid larvae were assessed in each dish at 5 days after treatment application, and mortality percentage was calculated.

[4] = system: Cowpea Aphid (aphis craccivora); test: Cowpea aphid, sprayed potted cowpea plants; details: population reduction recorded after 24, 72 and 120 hours
Protocol: as §1
The active compounds were formulated in 50:50 acetone:water. Potted cowpea plants colonized with 100-150 aphids of various stages were sprayed after the pest population has been recorded. Population reduction was recorded after 24, 72, and 120 hours.

[5] = system: Silverleaf Whitefly (Bemisia argentifolii); test: Silverleaf whitefly, cotton cotyledon dip test; details: for mortality at 100 ppm: Bemisia argentifolii, 72 h, 3 days after treatment, adults on cotton cotyledons, read-out: mortality compared to untreated controls (silverleaf whitefly); for biological activity (0% no activity to 100% total control), Bemesia argentifolia: 300 ppm, comparative test
Protocol: as §1, §2
Selected cotton plants were grown to the cotyledon state (one plant per pot). The cotyledons were dipped into the test solution to provide complete coverage of the foliage and placed in a well-vented area to dry. Each pot with treated seedling was placed in a plastic cup and 10 to 12 whitefly adults (approximately 3-5 day old) were introduced. The insects were colleted using an aspirator and an 0.6 cm, non-toxic TygonO tubing (R-3603) connected to a barrier pipette tip. The tip, containing the collected insects, was then gently inserted into the soil containing the treated plant, allowing insects to crawl out of the tip to reach the foliage for feeding. The cups were covered with a reusable screened lid (150 micron mesh polyester screen PeCap from Tetko Inc). Test plants were maintained in the holding room at about 25° C. and 20-40% relative humidity for 3 days avoiding direct exposure to the fluorescent light (24 hour photoperiod) to prevent trapping of heat inside the cup. Mortality was assessed 3 days after treatment of the plants.
as §4

[6] = system: Rice Green Leafhopper (Nephotettix virescens); test: Rice green leafhopper, sprayed rice seedlings; details: after 72 hours, 10 adults
Protocol: as §1
as §3, with “acetone:water,” for “acetone:water”

[7] = system: Southern Armyworm (spodoptera eridania), 2nd-3rd Instar Larvae; test: Southern armyworm, lima bean foliage dip test; details: for biological activity (0% no activity to 100% total control), Spodoptera eridania: 300 ppm, comparative test
Protocol: as §1
The active compounds were formulated as a 10.000 ppm solution in a mixture of 35% acetone and water, which was diluted with water, if needed.
Sieva lima bean foliage, expanded to the first true leaves, were dipped and agitated in the test solution for 3 seconds and then allowed to dry in a fume hood. The treated plant was then placed in 25-cm plastic perforated zip enclosure bags, ten 2nd-instar larvae were added, and the bags sealed. After 4 days, observations were made of mortality, plant feeding, and of any interference with larval growth.
as §4

[8] = system: Cotton Aphid (aphis gossypii), Mixed Life Stages; test: Cotton aphid, mixed life stages, infested cotyledon dip test; details: 300 ppm; comparative test
Protocol: as §1
The active compounds were formulated in 50:50 acteone/water and 100 ppm Kinetic™ surfactant
Cotton plants at the cotyledon stage were infested prior to treatment by placing a heavily infested leaf from the main aphid colony on top of each cotyledon. The aphids were allowed to transfer overnight and the host leaf was removed. The infested cotyledons were then dipped and agitated in the test solution for 3 seconds and allowed to dry in a fume hood. Test plants were maintained under fluorescent lighting in a 24-hr photoperiod at 25° C. and 20-40% relative humidity. Aphid mortality on the treated plants, relative to mortality on untreated check plants, was determined after 5 days.
as §4

[9] = system: Green Peach Aphid (Myzus persicae), Mixed Life Stages; test: Green peach aphid, mixed life stages, bell pepper leaf dip test; details: 300 ppm; comparative test
Protocol: as §1
Bell pepper plants at the first true-leaf stage were infested prior to treatment by placing heavily infested leaves from the main aphid colony on top of the treatment plants. The aphids were allowed to transfer overnight to accomplish an infestation of 30-40 aphids per plant and the host leaves were removed. The infested leaves of the test plants were then dipped and agitated in the test solution for 3 seconds and allowed to dry in a fume hood. Test plants were maintained under fluorescent lighting in a 24-hr photoperiod at 25° C. and 20-40% relative humidity. Aphid mortality on the treated plants, relative to mortality on untreated check plants, was determined after 5 days.
as §4

Row | SMILES | mortality at 100 ppm [1] [%] | mortality at 100 ppm [2] [%] | mortality at 100 ppm [3] [%] | mortality at 100 ppm [4] [%] | mortality at 100 ppm [5] [%] | mortality at 100 ppm [6] [%] | mortality at 100 ppm ([7]; Spodoptera eridania, foliar, 96 h, 100 ppm, after 4 days, lima bean foliage dipped, read-out: mortality in comparison with untreated controls (southern armyworm)) [%] | biological activity (0% no activity to 100% total control), Spodoptera eridania [7] [%] | biological activity (0% no activity to 100% total control), Aphis gossypii [8] [%] | biological activity (0% no activity to 100% total control), Nilaparvata lugens [2] [%] | biological activity (0% no activity to 100% total control), Bemesia argentifolia [5] [%] | biological activity (0% no activity to 100% total control), Myzus persicae [9] [%]
1 | CC(Nc1ncnc2scc(Cl)c12)c1ccc(OC(F)(F)F)cc1 (centres unmarked) [Compound 2, (5-Chloro-thieno[2,3-d]pyrimidin-4-yl)-[1-(4-trifluoromethoxy-phenyl)-ethyl]-amine] | ≥ 60 | ≥ 90 | ≥ 90 | ≥ 75 | ≥ 90 | ≥ 60 | – | – | – | – | – | –
2 | FC(F)(F)Oc1ccc(CCNc2ncnc3scc(Cl)c23)cc1 [Compound 5, (5-Chloro-thieno[2,3-d]pyrimidin-4-yl)-[2-(4-trifluoromethoxy-phenyl)-ethyl]-amine] | – | ≥ 90 | ≥ 90 | ≥ 75 | ≥ 90 | ≥ 60 | ≥ 60 | – | – | – | – | –
3 | CC(C)(C)[C@H]1CC[C@@H](Nc2ncnc3scc(Cl)c23)CC1 [Compound 6, cis-(4-tert-Butyl-cyclohexyl)-(5-chloro-thieno[2,3-d]pyrimidin-4-yl)-amine] | ≥ 60 | ≥ 90 | ≥ 90 | ≥ 75 | ≥ 90 | ≥ 60 | – | – | – | – | – | –
4 | CC(C)(C)[C@H]1CC[C@@H](Nc2ncnc3scc(Cl)c23)CC1 [drawing 15] | – | – | – | – | – | – | – | 100 | 100 | 100 | 100 | 100
5 | [H][C@H]1CC[C@H](Nc2ncnc3scc(Cl)c23)CC1 [reference compound] | – | – | – | – | – | – | – | 0 | 75 | 0 | 0 | 50
6 | C[C@H](Nc1ncnc2scc(Cl)c12)c1ccccc1 [reference compound] | – | – | – | – | – | – | – | – | 100 | 0 | 0 | 100
